Assay results reported in patent US4235904A, “4-Aryl-5-piperazinoalkyl-1,3-dioxol-2-ones, and compositions” (Instituto Luso Farmaco d'Italia S.p.A., priority 1978, dated 1980).
Counter-ions that a name gives are not always drawn.

Columns and labels:
[1] = tested on: plasmatic triglycerides; assay: Hypotriglyceremic activity: determination of plasmatic triglycerides in rats treated orally; format: in vivo; details: Rattus norvegicus, po, 96 h, os, five treatments in 4 days, dose which reduces by 30% the content of plasmatic triglycerides, Table 2, read-out: Hypotriglyceremic activity DE30 (rats)
Protocol: It has been evaluated orally in rats treated five times in 4 days (once daily during the first three days, twice daily on the fourth day) with the drugs under study. The animals, kept on an empty stomach, were killed on the fifth day, 18 hours after the last treatment. The following tests were carried out: The technique of […].,44, 267, 1966) is used; it consists in determining, by enzymatic route, the total glycerol made free by hydrolysis of the seric neutral fats. In particular, the "Biochemia Test Combination" (Boehringer Mannheim GMBH) was used. In this case, too, the seric concentration of triglycerides in the treated animals was compared with that in the controls. The calculated ED30 represents the dose which reduces by 30% the content of plasmatic triglycerides.

[2] = Antiulcer activity in the rat (immobilization, method of Rossi et al.); format: in vivo; details: po, rats, os, 30 minutes before 4 hours immobilization, dose which protects 30% of the animals from ulcers, Table 3, read-out: Antiulcer activity DE30 (rats)
Protocol: (b) Antiulcer activity in the rat The method described by Rossi et al. (Comp.Rend.Soc.Biol., 150, 2124, 1956) was followed: 30 minutes after the oral treatment with the drugs under study, the animals, kept on an empty stomach for 48 hours, were immobilized for a period of 4 hours. At the end of this time, the presence of ulcers is checked after killing the animals by ether. The calculated ED30 represents the dose which protects 30% of the animals from ulcers.

[3] = tested on: plasmatic cholesterol; assay: Hypocholesterolemic activity: determination of plasmatic cholesterol in rats treated orally; format: in vivo; details: Rattus norvegicus, po, 96 h, os, five treatments in 4 days, dose which reduces by 30% the content of plasmatic cholesterol, Table 1, read-out: Hypocholesterolemic activity, DE30 (rats)
Protocol: It has been evaluated orally in rats treated five times in 4 days (once daily during the first three days, twice daily on the fourth day) with the drugs under study. The animals, kept on an empty stomach, were killed on the fifth day, 18 hours after the last treatment. The following tests were carried out: The technique described by J. P. Blomhoff (Clin.Chim.Acta, 43,247, 1973) for the gas-chromatographic determination of total cholesterol was followed. 0,5 ml of the animal serum are hydrolysed at 50° C. for 1 hour with 5 ml of 2% alcoholic KOH. Cholesterol is extracted with 2% petroleum ether at 60°-80° C. and the gas-chromatographic analysis is carried out on the extract with cholesterol acetate as internal standard. The plasmatic cholesterol concentration of the treated animals is evaluated by comparing it with that of the controls. The calculated ED30 represents the dose which reduces by 30% the content of plasmatic cholesterol.

[4] = Acute toxicity, DL50 (mice), ip; details: for LD50: mouse, in vivo

| Structure (SMILES) | ED30 [1] [mg/kg] | ED30 [2] [mg/kg] | ED30 [3] [mg/kg] | LD50 [4] [mg/kg] | Acute toxicity DL50 (mice) ([4]; Table 1) [mg/kg] | Acute toxicity DL50 (mice) ([4]; Table 2) [mg/kg] | Acute toxicity DL50 (mice) ([4]; Table 3) [mg/kg] |
| --- | --- | --- | --- | --- | --- | --- | --- |
| Cl.Cl.O=c1oc(CCN2CCN(c3ccccc3)CC2)c(-c2ccc(F)cc2)o1 [Compound 1, 4-(4-fluorophenyl)-5-[2-(4-phenyl-1-piperazinyl)ethyl]-1,3-dioxol-2-one dihydrochloride] | 50 | 10 | 10 | 420 | – | – | – |
| CN(CCc1ccccc1)CCc1oc(=O)oc1-c1ccc(F)cc1.Cl [Compound 2, 4-(4-fluorophenyl)-5-[2-(N-methyl-N-2-phenylethylamino)ethyl]-1,3-dioxol-2-one hydrochloride] | – | 15 | – | 175 | – | – | – |
| Cl.Cl.O=c1oc(CCN2CCN(c3ccccn3)CC2)c(-c2ccc(F)cc2)o1 [Compound 3, 4-(4-fluorophenyl)-5-[2-(4-(2-pyridyl)-1-piperazinyl)ethyl]-1,3-dioxol-2-one dihydrochloride] | – | – | 25 | 350 | – | – | – |
| CN1CCN(CCc2oc(=O)oc2-c2ccc(F)cc2)CC1.Cl.Cl [Compound 4, 4-(4-fluorophenyl)-5-[2-(4-methyl-1-piperazinyl)ethyl]-1,3-dioxol-2-one dihydrochloride] | – | 20 | – | 300 | – | – | – |
| COc1ccccc1N1CCN(CCc2oc(=O)oc2-c2ccc(F)cc2)CC1.Cl.Cl [Compound 5, 4-(4-fluorophenyl)-5-[2-(4-(2-methoxyphenyl)-1-piperazinyl)ethyl]-1,3-dioxol-2-one dihydrochloride] | – | 30 | – | 350 | – | – | – |
| Cl.Cl.O=c1oc(CCN2CCN(c3ccccc3)CC2)c(-c2ccccc2)o1 [Compound 6, 4-phenyl-5-[2-(4-phenyl-1-piperazinyl)ethyl]-1,3-dioxol-2-one dihydrochloride] | 30 | 20 | 20 | 500 | – | – | – |
| Cl.Cl.O=c1oc(CCN2CCN(c3ccccc3)CC2)c(-c2ccc(Cl)cc2)o1 [Compound 7, 4-(4-chlorophenyl)-5-[2-(4-phenyl-1-piperazinyl)ethyl]-1,3-dioxol-2-one dihydrochloride] | 30 | 80 | 6 | 650 | – | – | – |
| O=c1oc(CCN2CCOCC2)c(-c2ccc(F)cc2)o1 [Compound 8, 4-(4-fluorophenyl)-5-[2-(1-morpholinyl)ethyl]-1,3-dioxol-2-one hydrochloride] | – | 30 | – | > 1000 | – | – | – |
| Cc1ccc(-c2oc(=O)oc2CCN2CCN(c3ccccc3)CC2)cc1.Cl [Compound 9, 4-(4-tolyl)-5-[2-(4-phenyl-1-piperazinyl)ethyl]-1,3-dioxol-2-one hydrochloride] | 100 | 10 | 15 | > 1000 | > 1000 | > 1000 | – |
| Cl.O=c1oc(CCN2CCN(c3cc(Cl)cc(Cl)c3)CC2)c(-c2ccc(F)cc2)o1 [Compound 10, 4-(4-fluorophenyl)-5-[2-(4-(3,5-dichlorophenyl)-1-piperazinyl)ethyl]-1,3-dioxol-2-one hydrochloride] | 100 | 50 | – | > 1000 | – | > 1000 | – |
| CC1CN(CCc2oc(=O)oc2-c2ccc(F)cc2)CCN1c1ccc(Cl)cc1.Cl.Cl (stereo not shown) [Compound 11, 4-(4-fluorophenyl)-5-[2-(4-(4-chlorophenyl)-3-methyl-1-piperazinyl)ethyl]-1,3-dioxol-2-one dihydrochloride] | 30 | 100 | – | 1000 | – | – | – |
| Cl.O=c1oc(CCN2CCN(c3cc(Cl)ccc3Cl)CC2)c(-c2ccc(F)cc2)o1 [Compound 12, 4-(4-fluorophenyl)-5-[2-(4-(2,5-dichlorophenyl)-1-piperazinyl)ethyl]-1,3-dioxol-2-one hydrochloride] | 30 | – | – | – | – | 1000 | – |
| Cl.O=c1oc(CCN2CCN(c3ccc(Cl)c(Cl)c3)CC2)c(-c2ccc(F)cc2)o1 [Compound 13, 4-(4-fluorophenyl)-5-[2-(4-(3,4-dichlorophenyl)-1-piperazinyl)ethyl]-1,3-dioxol-2-one hydrochloride] | 25 | 100 | – | – | – | 600 | 600 |
| O=c1oc(CCN2CCN(c3ccccc3)CC2)c(-c2ccc3ccccc3c2)o1 [Compound 14, 4-(2-naphtyl)-5-[2-(4-phenyl-1-piperazinyl)ethyl]-1,3-dioxol-2-one hydrochloride] | 100 | – | 20 | 830 | – | – | – |
| COc1ccc(-c2oc(=O)oc2CCN2CCN(c3ccccc3)CC2)cc1.Cl.Cl [Compound 15, 4-(4-methoxyphenyl)-5-[2-(4-phenyl-1-piperazinyl)ethyl]-1,3-dioxol-2-one dihydrochloride] | 20 | – | – | > 1000 | – | – | – |
| CSc1ccc(-c2oc(=O)oc2CCN2CCN(c3ccccc3)CC2)cc1.Cl.Cl [Compound 16, 4-(4-methylthiophenyl)-5-[2-(4-phenyl-1-piperazinyl)ethyl]-1,3-dioxol-2-one dihydrochloride] | 100 | – | – | > 1000 | – | – | – |
| Cl.O=c1oc(CCN2CCC3(CCCCC3)CC2)c(-c2ccc(F)cc2)o1 [Compound 17, 4-(4-fluorophenyl)-5-[2-(3-azaspiro[5,5]undecan-3-yl)ethyl]-1,3-dioxol-2-one hydrochloride] | 30 | – | – | 190 | – | – | – |
| Cl.Cl.O=c1oc(CCN2CCN(C(c3ccccc3)c3ccc(Cl)cc3)CC2)c(-c2ccc(Cl)cc2)o1 (stereo not shown) [Compound 18, 4-(4-chlorophenyl)-5-[2-(4-(4-chlorobenzhydryl)-1-piperazinyl)ethyl]-1,3-dioxol-2-one dihydrochloride] | 20 | – | – | > 1000 | – | – | – |
| O=C(O)/C=C\C(=O)O.O=c1oc(CCN2CCN(c3ncccn3)CC2)c(-c2ccc(Cl)cc2)o1 [Compound 19, 4-(4-chlorophenyl)-5-[2-(4-(2-pyrimidinyl)-1-piperazinyl)ethyl]-1,3-dioxol-2-one maleate] | – | – | 30 | 375 | – | – | – |
| Cl.O=c1oc(CCCN2CCN(c3ccccc3)CC2)c(-c2ccc(F)cc2)o1 [Compound 20, 4-(4-fluorophenyl)-5-[3-(4-phenyl-1-piperazinyl)propyl]-1,3-dioxol-2-one hydrochloride] | 15 | – | 30 | > 500 | – | > 500 | – |
| O=c1oc(CCN2CCN(c3ccc(Cl)cc3)CC2)c(-c2ccc(Cl)cc2)o1 [Compound 21, 4-(4-chlorophenyl)-5-[2-(4-chlorophenyl)-1-piperazinyl)ethyl]-1,3-dioxol-2-one hydrochloride] | 100 | – | – | > 1000 | – | – | – |
| O=c1oc(CCN2CCC(c3ccccc3)CC2)c(-c2ccc(Cl)cc2)o1 [Compound 22, 4-(4-chlorophenyl)-5-[2-(4-phenyl)-1-piperidinyl)ethyl]-1,3-dioxol-2-one hydrochloride] | 50 | – | – | 750 | – | – | – |
| Cl.O=c1oc(CCN2CCN(C(c3ccccc3)c3ccccc3)CC2)c(-c2ccc(Cl)cc2)o1 [Compound 23, 4-(4-chlorophenyl)-5-[2-(4-benzhydryl-1-piperazinyl)ethyl]-1,3-dioxol-2-one hydrochloride] | 100 | – | – | > 1000 | – | – | – |
